Results from ChEMBL document CHEMBL1681745, “Synthesis and photophysical properties of new SNARF derivatives as dual emission pH sensors” (Bioorg Med Chem Lett, 2011).

Tests used:
[1] = Dissociation constant, pKa of the compound by UV spectrum analysis; format: physicochemical
[2] = system: V79; test: Cellular uptake in chinese hamster V79 cells at 10 uM after 1 hr by flow cytometry; format: ADME, cell-based, Cricetulus griseus; conditions: v79, 1 h

pKa [1]	Drug uptake [2]	Structure (SMILES)
7.38	Active	CN(C)c1ccc2c(c1)Oc1c(ccc3cc(O)ccc13)C21OC(=O)c2c(F)c(F)c(F)c(F)c21 (stereo unspecified)
7.62	Active	C[N+](C)=c1ccc2c(-c3ccccc3C(=O)O)c3ccc4cc(O)ccc4c3oc-2c1
7.9	Active	CN(C)c1ccc2c(c1)Oc1c(ccc3cc(O)ccc13)C21OC(=O)c2c(Cl)c(Cl)c(Cl)c(Cl)c21 (stereo unspecified)
